Source: patent publication US20060069132A1, “Azolecarboxamide herbicides” (priority 2004, published 2006)

Experiments:
[1] = tested on: blackgrass; experiment: Test B postemergence herbicide test; type: in vivo, Alopecurus myosuroides; conditions: scale 0 (no effect) to 100 (complete control)
How it was run: (§1)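 Visual control ratings, 0–100 versus untreated controls, taken after 13 to 15 days in the greenhouse. Blackgrass received a postemergence spray at the 1- to 4-leaf stage (2–18 cm); ducksalad, umbrella sedge and barnyardgrass were flooded-paddy treated at 2 leaves.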

[2] = tested on: barnyardgrass; experiment: Test B pre-/postemergence herbicide test; type: in vivo, Echinochloa crus-galli
How it was run: (§2)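 Response was scored visually 13 to 15 days after treatment against untreated greenhouse controls, 0 meaning no effect and 100 complete control. Formulations (solvent mixture plus surfactant) went onto soil after planting, onto foliage of 1- to 4-leaf plants, and onto 2-leaf plants in a flooded paddy set including rice and barnyardgrass.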

[3] = tested on: ducksalad; experiment: Test B flooded paddy test; type: in vivo, Heteranthera limosa; conditions: 1000 g ai/ha, visual rating, scale 0 to 100 (0 no effect, 100 complete control), 13 to 15 days
How it was run: as §1

[4] = tested on: pigweed; experiment: Test B pre-/postemergence herbicide test; type: in vivo, Amaranthus retroflexus
How it was run: (§3)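 Seeds were planted and treated preemergence with compounds formulated in a non-phytotoxic solvent mixture containing surfactant, while plants at the 1- to 4-leaf stage (2 to 18 cm) received postemergence sprays. Flooded paddy plants were grown to the 2-leaf stage. After 13 to 15 days in a greenhouse, injury was visually rated 0–100 against untreated controls.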

[5] = tested on: corn; experiment: Test B pre-/postemergence herbicide test; type: in vivo, Zea mays; conditions: for Plant response rating, Corn: preemergence
How it was run: as §3

[6] = tested on: giant foxtail; experiment: Test B pre-/postemergence herbicide test; type: in vivo, Setaria faberi
How it was run: as §3

[7] = tested on: large crabgrass; experiment: Test B pre-/postemergence herbicide test; type: in vivo, Digitaria sanguinalis
How it was run: as §3

[8] = tested on: wild oat; experiment: Test B postemergence herbicide test; type: in vivo, Avena fatua; conditions: scale 0 (no effect) to 100 (complete control)
How it was run: (§4)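 Plants grow to 1- to 4-leaf stage (2–18 cm) for postemergence spraying, or to 2-leaf stage for the paddy test. Formulated compound is applied. Greenhouse holding lasts 13–15 days. Response is scored visually relative to controls, 0 no effect to 100 complete control; a dash means no result.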

[9] = tested on: morningglory; experiment: Test B pre-/postemergence herbicide test; type: in vivo, Ipomoea coccinea; conditions: for Plant response rating, Morningglory: preemergence
How it was run: as §2

[10] = tested on: velvetleaf; experiment: Test B pre-/postemergence herbicide test; type: in vivo, Abutilon theophrasti
How it was run: as §3

[11] = tested on: small flower umbrella sedge; experiment: Test B flooded paddy test; type: in vivo, Cyperus difformis; conditions: 1000 g ai/ha, visual rating, scale 0 to 100 (0 no effect, 100 complete control), 13 to 15 days
How it was run: as §1

[12] = tested on: Surinam grass; experiment: Test B pre-/postemergence herbicide test; type: in vivo, Urochloa decumbens
How it was run: as §3

[13] = tested on: wheat; experiment: Test B postemergence herbicide test; type: in vivo, Triticum aestivum; design: key to Wheat plant response rating: 0 = no effect, 100 = complete control; conditions: scale 0 (no effect) to 100 (complete control); for Wheat plant response rating: postemergence, visual rating
How it was run: as §4

[14] = tested on: cocklebur; experiment: Test B pre-/postemergence herbicide test; type: in vivo, Xanthium strumarium
How it was run: as §2

[15] = tested on: rice; experiment: Test B flooded paddy test; type: in vivo, Oryza sativa; conditions: 1000 g ai/ha, visual rating, scale 0 to 100 (0 no effect, 100 complete control), 13 to 15 days
How it was run: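 Visual ratings, 0 (no effect) to 100 (complete control), made versus controls after 13–15 d greenhouse. Paddy plants treated at 2-leaf stage; postemergence plants at 1- to 4-leaf stage, 2–18 cm tall.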

[16] = postemergence, 125 g ai/ha, visual rating
[17] = postemergence, 500 g ai/ha, visual rating
[18] = 500 g ai/ha, visual rating 0-100, 0 no effect, 100 complete control, preemergence
[19] = postemergence, 125 g ai/ha, visual rating, scale 0 (no effect) to 100 (complete control)
[20] = postemergence, 500 g ai/ha, visual rating, scale 0 (no effect) to 100 (complete control)
[21] = preemergence, 125 g ai/ha, 0 to 100 scale, 0 is no effect, 100 is complete control
[22] = 500 g ai/ha, visual rating 0-100, 0 no effect, 100 complete control
[23] = 125 g ai/ha, 0 to 100 scale, 0 is no effect, 100 is complete control
[24] = Postemergence, 500 g ai/ha, visual rating after 13 to 15 days
[25] = Postemergence, 125 g ai/ha, scale 0 (no effect) to 100 (complete control)
[26] = Postemergence, 500 g ai/ha, visual rating after 13 to 15 days, scale 0 (no effect) to 100 (complete control)
[27] = Preemergence, 500 g ai/ha, scale 0 to 100

Compound: CCNC(=O)c1cccc(NC(=O)c2cc(C(C)(C)C)nn2CC)n1 [Compound 144]
- Blackgrass plant response rating [1, 16]: 20
- Blackgrass plant response rating [1, 17]: 60
- Plant response rating, Barnyardgrass [2, 18]: 100
- Barnyardgrass plant response rating [2, 19]: 70
- Barnyardgrass plant response rating [2, 20]: 80
- Plant response rating, Barnyardgrass [2, 21]: 90
- Ducksalad plant response rating [3]: 90
- Plant response rating, Pigweed [4, 18]: 100
- Pigweed plant response rating [4, 19]: 100
- Pigweed plant response rating [4, 20]: 100
- Plant response rating, Pigweed [4, 21]: 100
- Plant response rating, Corn [5, 22]: 10
- Corn plant response rating [5, 19]: 20
- Corn plant response rating [5, 20]: 30
- Plant response rating, Corn [5, 23]: 10
- Plant response rating, Foxtail, Giant [6, 18]: 100
- Foxtail, Giant plant response rating [6, 19]: 40
- Foxtail, Giant plant response rating [6, 20]: 90
- Plant response rating, Foxtail, Giant [6, 21]: 100
- Plant response rating, Crabgrass, Large [7, 18]: 100
- Crabgrass, Large plant response rating [7, 19]: 30
- Crabgrass, Large plant response rating [7, 20]: 100
- Plant response rating, Crabgrass, Large [7, 21]: 80
- Oat, Wild plant response rating [8, 16]: 20
- Oat, Wild plant response rating [8, 17]: 50
- Plant response rating, Morningglory [9, 22]: 100
- Morningglory plant response rating [9, 19]: 50
- Morningglory plant response rating [9, 20]: 80
- Plant response rating, Morningglory [9, 23]: 100
- Plant response rating, Velvetleaf [10, 18]: 100
- Velvetleaf plant response rating [10, 19]: 80
- Velvetleaf plant response rating [10, 20]: 100
- Plant response rating, Velvetleaf [10, 21]: 100
- Sedge, Umbrella plant response rating [11]: 90
- Plant response rating, Surinam Grass [12, 18]: 100
- Surinam Grass plant response rating [12, 19]: 60
- Surinam Grass plant response rating [12, 20]: 90
- Plant response rating, Surinam Grass [12, 21]: 60
- Wheat plant response rating ([13]; 500 g ai/ha): 30
- Plant response rating, Cocklebur [14, 18]: 20
- Cocklebur plant response rating [14, 19]: 30
- Cocklebur plant response rating [14, 20]: 100
- Plant response rating, Cocklebur [14, 21]: 10
- Rice plant response rating [15]: 70

Compound: CCOc1cccc(NC(=O)c2cc(C(C)(C)C)nn2CC)c1 [Compound 136]
- Blackgrass plant response rating [1, 16]: 30
- Blackgrass plant response rating [1, 17]: 60
- Plant response rating, Barnyardgrass [2, 18]: 100
- Barnyardgrass plant response rating [2, 19]: 50
- Barnyardgrass plant response rating [2, 20]: 90
- Plant response rating, Barnyardgrass [2, 21]: 90
- Ducksalad plant response rating [3]: 90
- Plant response rating, Pigweed [4, 18]: 100
- Pigweed plant response rating [4, 19]: 60
- Pigweed plant response rating [4, 20]: 90
- Plant response rating, Pigweed [4, 21]: 100
- Plant response rating, Corn [5, 22]: 30
- Corn plant response rating [5, 19]: 10
- Corn plant response rating [5, 20]: 30
- Plant response rating, Corn [5, 23]: 10
- Plant response rating, Foxtail, Giant [6, 18]: 100
- Foxtail, Giant plant response rating [6, 19]: 10
- Foxtail, Giant plant response rating [6, 20]: 10
- Plant response rating, Foxtail, Giant [6, 21]: 80
- Plant response rating, Crabgrass, Large [7, 18]: 100
- Crabgrass, Large plant response rating [7, 19]: 10
- Crabgrass, Large plant response rating [7, 20]: 70
- Plant response rating, Crabgrass, Large [7, 21]: 100
- Oat, Wild plant response rating [8, 16]: 50
- Oat, Wild plant response rating [8, 17]: 60
- Plant response rating, Morningglory [9, 22]: 70
- Morningglory plant response rating [9, 19]: 20
- Morningglory plant response rating [9, 20]: 100
- Plant response rating, Morningglory [9, 23]: 50
- Plant response rating, Velvetleaf [10, 18]: 100
- Velvetleaf plant response rating [10, 19]: 60
- Velvetleaf plant response rating [10, 20]: 70
- Plant response rating, Velvetleaf [10, 21]: 50
- Sedge, Umbrella plant response rating [11]: 90
- Plant response rating, Surinam Grass [12, 18]: 90
- Surinam Grass plant response rating [12, 19]: 20
- Surinam Grass plant response rating [12, 20]: 70
- Plant response rating, Surinam Grass [12, 21]: 40
- Wheat plant response rating ([13]; 125 g ai/ha): 20
- Wheat plant response rating ([13]; 500 g ai/ha): 40
- Plant response rating, Cocklebur [14, 18]: 10
- Cocklebur plant response rating [14, 19]: 100
- Cocklebur plant response rating [14, 20]: 100
- Plant response rating, Cocklebur [14, 21]: 0
- Rice plant response rating [15]: 30

Compound: C=Cn1nc(C(C)(C)C)cc1C(=O)Nc1cccc(C(=O)N(CC)CC)c1 [Compound 34]
- Blackgrass plant response rating ([1]; Postemergence, 125 g ai/ha): 10
- Plant response rating, Blackgrass [1, 24]: 20
- Barnyardgrass plant response rating [2, 25]: 20
- Plant response rating, Barnyardgrass [2, 26]: 30
- Barnyardgrass plant response rating [2, 27]: 80
- Ducksalad plant response rating [3]: 80
- Plant response rating, Pigweed [4, 26]: 90
- Pigweed plant response rating [4, 27]: 100
- Plant response rating, Pigweed [4, 21]: 100
- Corn plant response rating [5, 27]: 0
- Foxtail, Giant plant response rating [6, 25]: 30
- Plant response rating, Foxtail, Giant [6, 26]: 30
- Foxtail, Giant plant response rating [6, 27]: 90
- Plant response rating, Foxtail, Giant [6, 21]: 30
- Crabgrass, Large plant response rating [7, 25]: 20
- Plant response rating, Crabgrass, Large [7, 26]: 20
- Crabgrass, Large plant response rating [7, 27]: 100
- Oat, Wild plant response rating ([8]; Postemergence, 125 g ai/ha): 10
- Plant response rating, Oat, Wild [8, 24]: 10
- Morningglory plant response rating [9, 27]: 20
- Plant response rating, Morningglory [9, 23]: 0
- Plant response rating, Velvetleaf [10, 26]: 50
- Velvetleaf plant response rating [10, 27]: 60
- Plant response rating, Velvetleaf [10, 21]: 20
- Sedge, Umbrella plant response rating [11]: 80
- Plant response rating, Surinam Grass [12, 26]: 50
- Surinam Grass plant response rating [12, 27]: 80
- Plant response rating, Surinam Grass [12, 21]: 20
- Plant response rating, Wheat [13, 24]: 30
- Cocklebur plant response rating [14, 25]: 40
- Plant response rating, Cocklebur [14, 26]: 90
- Cocklebur plant response rating [14, 27]: 10
- Rice plant response rating [15]: 50
